The values below are quoted from earlier work in patent US8846662B2, “Benzodiazepine and/or pharmaceutical composition comprising benzodiazepine derivatives” (Dr. Franz Koehler Chemie GmbH, priority 2008, dated 2014).

The series deals with specific binding sites in the central nervous system. The settings on record: background statement.

As for `O=C1Nc2ccc(Cl)cc2C(c2ccccc2Cl)=NC1O` (centres unmarked) [Lorazepam, 7-chloro-5-(o-chlorophenyl)-1,3-dihydro-3-hydroxy-2H-1,4-benzodiazepin-2-one], the “Affinity for specific binding sites in the central nervous system” value is “very high affinity”. On to `CN1C(=O)C(O)N=C(c2ccccc2Cl)c2cc(Cl)ccc21` (centres unmarked) [Lormetazepam, 9-chloro-6-(2-chlorophenyl)-4-hydroxy-2-methyl-2,5-diazabicyclo-[5.4.0]undeca-5,8,10,12-tetraen-3-one], for which the “Affinity for specific binding sites in the central nervous system” value was “very high affinity”.
